The results in this text go back to patent US20250179126A1, “A NOVEL PEPTIDE FROM A PHOTOSYNTHETIC BACERIUM DIRECTLY TARGETS MITOCHONDRIA TO TRIGGER APOPTOSIS IN ADVANCED PROSTATE CANCER CELLS” (priority 2022, published 2025).

The subject of one test is Mel-2 cells. Briefly: Aldolase A secretion and expression in Mel-2 cells treated with purified azurin. In kind it is cell-based, human. The note with it: Mel-2, purified azurin 100 nM, 10 μM, 1 mM, 30 min. The method, then: FIG. 18A-18G: Induction of aldolase A secretion by host cells in the presence of P. aeruginosa. 18A. Human host cells (cancer and normal) and P. aeruginosa were co-incubated for 30 min at a concentration of 500,000 human cells/ml with P. aeruginosa at OD=0.3. Aldolase secretion varied between the co-cultures with cancer and normal cells. […] 18B Correlation between the aldolase A and azurin levels in co-cultures of P. aeruginosa with cancer or normal cells. 18C Cancer cells (Mel-2 and MDA-MB-231) and P. aeruginosa (WT and azunull mutant) were co-incubated for 30 min at a concentration of 500,000 human cells/ml with P. aeruginosa at OD=0.3. Secretion of aldolase into the culture supernatant was assessed by western blot analysis. […]
Aldolase A gene expression in MDA-MB-231 (black bars) and Mel-2 (white bars) cells was determined by RT-PCR (22A). […] 22B: Intracellular levels of aldolase A were assessed by western blot analysis with an anti-aldolase A antibody. […]
Western blotting: After running the NuPAGE, proteins were transferred to PVDF membranes (BioRad Laboratories Inc, Hercules, CA) which were blocked in SuperBlock (T20 TBS buffer, Thermo Fisher) for one hour. […] The signal was detected using enhanced chemiluminescence (ECL, Thermo Fisher Scientific). Quantitative analysis of the bands was performed with a computer-assisted imaging densitometer (UN-SCAN-IT gel version 5.1). […]

The target of test [1] is T1, mitochondrial ATP synthase gamma subunit (ATP5C) (Homo sapiens, UniProt P36542).
T1 construct: endogenous in cells; host or cells: PC3 human prostate cancer cells, mitochondrial fraction (detergent extract)
T1 sequence (P36542 26-298): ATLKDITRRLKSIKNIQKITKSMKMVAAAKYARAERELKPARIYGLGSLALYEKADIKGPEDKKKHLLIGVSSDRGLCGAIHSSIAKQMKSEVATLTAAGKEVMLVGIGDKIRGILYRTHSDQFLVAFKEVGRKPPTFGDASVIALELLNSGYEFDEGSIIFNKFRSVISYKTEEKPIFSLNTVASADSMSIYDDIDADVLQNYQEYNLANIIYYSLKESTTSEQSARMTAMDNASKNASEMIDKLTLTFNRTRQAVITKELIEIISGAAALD
Briefly: Pull-down assay with biotin-labeled peptides and protein identification. In kind it is binding. The note with it: mitochondrial fraction of PC3 cells, biotin-labeled peptide, 16 hr at 4° C. An excerpt:
8A, TEM image of PC3 cells. Representative TEM micrograph of aurB-treated cells depicting the intraritochondrial localization of aurB-GNRs (arrowheads) and mitochondria](Mt) swelling. Scale bar: 600 nm. Mt: mitochondria. […] Coomassie-stained SDS-PAGE gels are shown (8B). The protein band at ˜35 kDa (arrowhead) was identified as ATP5C using mass spectrometry analysis. The identified fragments are indicated in green underlined sequence (SEQ ID NO: 4)(8C).
Pull-down assay and protein identification: PC3 cells were washed twice with PBS, and the mitochondrial fraction was prepared with a Qproteome mitochondria isolation kit (Qiagen). […] The peptides were then preincubated with streptavidin-agarose beads for 4 hr. After washing, the beads were boiled, and the released proteins were subjected to SDS-PAGE analysis. A protein band of ˜35 kDa was subjected to microcapillary LC/MS/MS for protein identification (Harvard Medical School, Taplin Mass Spectrometry Facility). For IB, proteins were transferred to nitrocellulose membranes. After blocking with 5% BSA in TBST, the membranes were incubated with anti-ATP5C antibody at 1:25,000 in 5% BSA/TBST (Abcam) for 16 hr at 4° C. The secondary antibody was applied (anti-goat IgG-HRP; Santa Cruz Biotechnology). The signal was detected using enhanced chemiluminescence (ECL).

Another test has as its system MDD2 breast cancer cells. Briefly: MTT cell viability assay, MDD2 breast cancer cells. In kind it is cell-based, human. Conditions: MDD2 (p53 dominant negative), 0.1-100 μM, 24 hr. The method, then:
Cell lines and culture: Human cancer and noncancer (immortalized and nonimmortalized) cell lines were obtained from the American Type Culture Collection [prostate cancer (PC3, DU145 and LNCaP), normal prostate (CRL11611), breast cancer (MCF-7), ovarian cancer (SK-OV3 adenocarcinoma), lung cancer (A549)]. MDD2 breast cancer cells (p53 dominant-negative) were provided courtesy of Dr Andrei V. Gudkov, Roswell Park Cancer Institute. 20 All cell lines were cultured in MEM-E (Invitrogen) supplemented with 10% heat-inactivated fetal bovine serum (Atlanta Biological, Inc.), 100 units/mL penicillin, and 100 μg/mL streptomycin at 37° C. in 5% CO2.
Cytotoxicity assay: The MTT assay was performed as we previously described (Cha et al., Cancer Research 2020, 80: 1615-1623).
(In general: Formazan colour is commonly taken as a measure of viable cells.)

“Also recorded” adds a separate entry of the source.

“azurin: 14 kDa periplasmic copper protein of 128 amino acids from P. aeruginosa; purified recombinant”: in the test with Mel-2 cells, the “aldolase A gene expression and intracellular levels” value was “without increasing gene expression or intracellular levels of aldolase A”; the “aldolase A secretion into culture medium (western blot)” value is reported as “secreted a considerable amount of human aldolase A”.
With “LVN GGD DVA AAV NTA AQN NAD ALF VPPP (LVNGGDDVAAAVNTAAQNNADALFVPPP) [aurB]”, the “binding to ATP5C (pull-down of ~35 kDa protein, IB)” value in test [1] is on record as “physically bound to ATP5C; also recorded: pulled down an endogenous protein”. Moreover, the “effect on p53-inactive cancer cells (MTT)” value with MDD2 breast cancer cells was “dose-dependent”.
